Patent US20250243196A1, “CITRON KINASE INHIBITORS” (The Cleveland Clinic Foundation, priority 2021, published 2025)
Where two headings read alike, the source gives them in different places.

Key:
[1] = target: Citron kinase (Homo sapiens (Human), UniProt O14578); experiment: Radiometric citron kinase assay (Eurofins Cat #16-040KP); format: biochemical
Procedure, shortened: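 Radiometric KinaseProfiler format: test compound incubated with kinase, substrate, cofactors and radiolabelled ATP; unreacted ATP washed away and radiolabelled phosphate incorporated into substrate measured. IC50 derived from inhibition of phosphorylation. Values are means of at least two independent assays.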

[2] = target: NanoLuc-CITK (full-length human CITK) (Homo sapiens (Human), UniProt O14578); experiment: NanoBRET intracellular target engagement assay; format: cell-based
NanoLuc-CITK (full-length human CITK), sequence (O14578 other isoform, or with tags, fused parts or gaps): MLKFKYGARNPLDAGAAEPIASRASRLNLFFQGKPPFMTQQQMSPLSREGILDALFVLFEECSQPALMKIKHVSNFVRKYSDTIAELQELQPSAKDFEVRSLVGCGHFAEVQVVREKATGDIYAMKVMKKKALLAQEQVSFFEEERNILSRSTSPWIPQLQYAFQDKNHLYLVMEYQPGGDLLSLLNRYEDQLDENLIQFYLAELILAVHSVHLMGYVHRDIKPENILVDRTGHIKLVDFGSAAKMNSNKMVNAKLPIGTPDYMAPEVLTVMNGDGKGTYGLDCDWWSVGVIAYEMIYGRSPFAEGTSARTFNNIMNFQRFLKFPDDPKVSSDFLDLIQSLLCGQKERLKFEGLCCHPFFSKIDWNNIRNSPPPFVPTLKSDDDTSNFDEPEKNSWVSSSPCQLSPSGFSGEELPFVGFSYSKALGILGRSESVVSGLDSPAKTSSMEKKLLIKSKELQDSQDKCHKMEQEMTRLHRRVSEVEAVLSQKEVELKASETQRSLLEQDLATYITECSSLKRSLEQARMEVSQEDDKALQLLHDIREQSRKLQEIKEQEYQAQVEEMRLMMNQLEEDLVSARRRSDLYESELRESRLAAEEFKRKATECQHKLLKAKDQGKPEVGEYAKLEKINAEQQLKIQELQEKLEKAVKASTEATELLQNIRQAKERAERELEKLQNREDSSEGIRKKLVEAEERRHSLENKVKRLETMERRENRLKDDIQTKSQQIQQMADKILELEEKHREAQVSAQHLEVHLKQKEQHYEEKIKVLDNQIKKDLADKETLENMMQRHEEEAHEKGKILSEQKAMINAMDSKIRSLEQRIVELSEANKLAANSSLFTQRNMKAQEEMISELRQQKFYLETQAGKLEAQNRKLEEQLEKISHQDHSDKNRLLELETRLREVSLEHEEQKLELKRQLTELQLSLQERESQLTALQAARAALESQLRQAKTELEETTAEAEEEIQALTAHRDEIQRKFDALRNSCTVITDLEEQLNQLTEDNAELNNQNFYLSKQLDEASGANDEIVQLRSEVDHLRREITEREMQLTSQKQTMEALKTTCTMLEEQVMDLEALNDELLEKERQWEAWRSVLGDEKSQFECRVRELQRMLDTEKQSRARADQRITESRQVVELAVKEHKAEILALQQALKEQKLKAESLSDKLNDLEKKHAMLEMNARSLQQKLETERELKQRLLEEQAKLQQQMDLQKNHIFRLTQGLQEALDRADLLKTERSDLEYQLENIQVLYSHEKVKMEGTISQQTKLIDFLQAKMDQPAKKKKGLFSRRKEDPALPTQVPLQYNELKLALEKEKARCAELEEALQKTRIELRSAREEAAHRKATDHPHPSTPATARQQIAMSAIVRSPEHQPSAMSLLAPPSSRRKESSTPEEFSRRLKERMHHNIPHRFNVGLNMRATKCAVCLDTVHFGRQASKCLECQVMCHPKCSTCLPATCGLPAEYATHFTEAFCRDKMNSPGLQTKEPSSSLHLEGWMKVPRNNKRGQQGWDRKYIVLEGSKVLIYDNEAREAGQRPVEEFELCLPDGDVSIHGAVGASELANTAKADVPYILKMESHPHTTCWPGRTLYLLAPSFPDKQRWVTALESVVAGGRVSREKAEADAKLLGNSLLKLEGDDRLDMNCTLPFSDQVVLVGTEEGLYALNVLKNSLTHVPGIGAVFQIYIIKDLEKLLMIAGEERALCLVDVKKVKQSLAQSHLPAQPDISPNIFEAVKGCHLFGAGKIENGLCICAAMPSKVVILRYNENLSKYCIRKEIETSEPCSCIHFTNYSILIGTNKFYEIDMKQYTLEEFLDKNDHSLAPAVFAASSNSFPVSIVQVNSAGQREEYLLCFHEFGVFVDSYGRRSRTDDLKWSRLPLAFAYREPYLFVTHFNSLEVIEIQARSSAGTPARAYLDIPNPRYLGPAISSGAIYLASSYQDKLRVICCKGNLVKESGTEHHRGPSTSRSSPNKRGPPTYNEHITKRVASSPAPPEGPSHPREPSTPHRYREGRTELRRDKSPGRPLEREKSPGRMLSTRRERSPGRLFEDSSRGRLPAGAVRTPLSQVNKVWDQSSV
Experimental: In-cell Kd values were evaluated with a NanoBRET Target Engagement Assay essentially as recommended by the manufacturer (Promega Corporation—for details see https://www.promega.com/resources/technologies/nanoluc-luciferase-enzyme/cellular-target-engagement/).
HEK293T cells were transfected with 5.0 μg/mL sterile NanoLuc-CITK DNA, 5.0 μg/mL Transfection Carrier DNA, and 30 μL/mL FugeneHD® (Promega) in Opti-Mem™ (Thermo) media at a cell density of 250,000 cells/mL. […] 5 μL of the 25× Tracer K10 solution was added to each well. Next, designated inhibitors were prepared from powder as 10 mM DMSO stocks and then further diluted to 10× the final assay concentration in Opti-Mem™. 12-pt dose-response curves were prepared by 3×-serial dilution. […] A 3× Complete Substrate+Inhibitor solution, containing 6 mL of Opti-Mem™, 36 μL of NanoBRET Nano-Glo Substrate, and 12 μL Extracellular NanoLuc Inhibitor was freshly prepared for each plate. 50 μL of the 3× Complete Substrate+Inhibitor solution was added to all wells and the plate was incubated for 2 min with 500 RPM shaking. The bottom of the plates were covered with black plate seals and then measured on a Cytation 5 plate reader (Biotek) with a NanoBRET Filter Cube (Biotek; 450/50 emission & 610LP emission). Background corrected BRET ratios (in mBU) were calculated in Excel and IC50's were subsequently extracted using four-parameter non-linear regression in GraphPad Prism 8.

[3] = target: IKKβ (Homo sapiens (Human), UniProt O14920); experiment: KinaseProfiler radiometric assay (14-485KP); format: biochemical; conditions: mean of at least two independent experiments
IKKβ, sequence (O14920 whole entry): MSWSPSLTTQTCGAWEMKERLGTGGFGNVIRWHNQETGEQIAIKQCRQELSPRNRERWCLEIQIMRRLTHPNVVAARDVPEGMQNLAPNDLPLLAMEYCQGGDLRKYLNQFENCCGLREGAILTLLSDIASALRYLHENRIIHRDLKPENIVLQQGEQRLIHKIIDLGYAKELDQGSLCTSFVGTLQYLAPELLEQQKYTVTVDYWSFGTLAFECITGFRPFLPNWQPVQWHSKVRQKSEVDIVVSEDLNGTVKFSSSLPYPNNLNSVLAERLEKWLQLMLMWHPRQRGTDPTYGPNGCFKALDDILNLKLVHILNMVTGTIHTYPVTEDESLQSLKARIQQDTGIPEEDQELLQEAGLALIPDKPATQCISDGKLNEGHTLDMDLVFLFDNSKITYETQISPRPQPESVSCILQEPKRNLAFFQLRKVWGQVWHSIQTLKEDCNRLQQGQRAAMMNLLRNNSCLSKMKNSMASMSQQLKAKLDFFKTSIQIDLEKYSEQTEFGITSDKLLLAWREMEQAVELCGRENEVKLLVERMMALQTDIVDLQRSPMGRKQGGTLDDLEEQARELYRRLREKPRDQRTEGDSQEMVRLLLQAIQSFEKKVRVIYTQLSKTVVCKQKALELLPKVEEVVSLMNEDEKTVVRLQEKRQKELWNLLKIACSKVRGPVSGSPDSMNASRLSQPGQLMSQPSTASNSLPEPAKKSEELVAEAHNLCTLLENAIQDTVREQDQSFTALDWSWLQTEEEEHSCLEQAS
From the text: (§1) In another aspect, disclosed is a method of inhibiting citron kinase in a sample, comprising contacting the sample with a compound described herein (e.g., a compound of formula (I) or a pharmaceutically acceptable salt thereof), or a pharmaceutical composition described herein (e.g., a pharmaceutical composition comprising a compound of formula (I) or a pharmaceutically acceptable salt thereof), in an amount effective to inhibit citron kinase. In some embodiments, the step of contacting the sample with the compound comprises administering the compound to a subject (e.g., a subject) suffering from cancer. Methods of determining kinase inhibition are well known in the art. For example, kinase activity of an enzyme and the inhibitory capacity of a test compound can be determined by measuring enzyme specific phosphorylation of a substrate. Commercial assays and kits can be employed. For example, kinase inhibition can be determined using a radiometric binding assay, such as using KinaseProfiler™ technology (Eurofins Discovery). This assay method directly detects product formation without the use of modified substrates or coupling enzymes. Test compounds are incubated with kinase, substrate, required cofactors and radioisotope labeled ATP. Following incubation, unreacted radioactive ATP is removed by washing and incorporation of the radiolabeled phosphate into the kinase substrate is assayed to detect phosphoryltransferase activity, which is directly proportional to the amount of phosphorylated substrate. Inhibition of the kinase by a kinase inhibitor prevents phosphorylation of the substrate and thereby limits the incorporation of radiolabeled phosphate. Such an assay is compatible with a microwell assay format, allowing simultaneous determination of IC50 of multiple compounds.
(§2) The effect of various compounds on the inhibition of other kinases has also been determined. Table 2 reports measured IC50 values; value units are nanomolar inhibition.

[4] = target: PKAα (Homo sapiens (Human), UniProt P17612); experiment: KinaseProfiler radiometric assay (14-440KP); format: biochemical; conditions: mean of at least two independent experiments
From the text: as §1, §2

[5] = target: ROCK-2 (Homo sapiens (Human), UniProt O75116); experiment: KinaseProfiler radiometric assay (14-451KP); format: biochemical; conditions: mean of at least two independent experiments
ROCK-2, sequence (O75116 whole entry): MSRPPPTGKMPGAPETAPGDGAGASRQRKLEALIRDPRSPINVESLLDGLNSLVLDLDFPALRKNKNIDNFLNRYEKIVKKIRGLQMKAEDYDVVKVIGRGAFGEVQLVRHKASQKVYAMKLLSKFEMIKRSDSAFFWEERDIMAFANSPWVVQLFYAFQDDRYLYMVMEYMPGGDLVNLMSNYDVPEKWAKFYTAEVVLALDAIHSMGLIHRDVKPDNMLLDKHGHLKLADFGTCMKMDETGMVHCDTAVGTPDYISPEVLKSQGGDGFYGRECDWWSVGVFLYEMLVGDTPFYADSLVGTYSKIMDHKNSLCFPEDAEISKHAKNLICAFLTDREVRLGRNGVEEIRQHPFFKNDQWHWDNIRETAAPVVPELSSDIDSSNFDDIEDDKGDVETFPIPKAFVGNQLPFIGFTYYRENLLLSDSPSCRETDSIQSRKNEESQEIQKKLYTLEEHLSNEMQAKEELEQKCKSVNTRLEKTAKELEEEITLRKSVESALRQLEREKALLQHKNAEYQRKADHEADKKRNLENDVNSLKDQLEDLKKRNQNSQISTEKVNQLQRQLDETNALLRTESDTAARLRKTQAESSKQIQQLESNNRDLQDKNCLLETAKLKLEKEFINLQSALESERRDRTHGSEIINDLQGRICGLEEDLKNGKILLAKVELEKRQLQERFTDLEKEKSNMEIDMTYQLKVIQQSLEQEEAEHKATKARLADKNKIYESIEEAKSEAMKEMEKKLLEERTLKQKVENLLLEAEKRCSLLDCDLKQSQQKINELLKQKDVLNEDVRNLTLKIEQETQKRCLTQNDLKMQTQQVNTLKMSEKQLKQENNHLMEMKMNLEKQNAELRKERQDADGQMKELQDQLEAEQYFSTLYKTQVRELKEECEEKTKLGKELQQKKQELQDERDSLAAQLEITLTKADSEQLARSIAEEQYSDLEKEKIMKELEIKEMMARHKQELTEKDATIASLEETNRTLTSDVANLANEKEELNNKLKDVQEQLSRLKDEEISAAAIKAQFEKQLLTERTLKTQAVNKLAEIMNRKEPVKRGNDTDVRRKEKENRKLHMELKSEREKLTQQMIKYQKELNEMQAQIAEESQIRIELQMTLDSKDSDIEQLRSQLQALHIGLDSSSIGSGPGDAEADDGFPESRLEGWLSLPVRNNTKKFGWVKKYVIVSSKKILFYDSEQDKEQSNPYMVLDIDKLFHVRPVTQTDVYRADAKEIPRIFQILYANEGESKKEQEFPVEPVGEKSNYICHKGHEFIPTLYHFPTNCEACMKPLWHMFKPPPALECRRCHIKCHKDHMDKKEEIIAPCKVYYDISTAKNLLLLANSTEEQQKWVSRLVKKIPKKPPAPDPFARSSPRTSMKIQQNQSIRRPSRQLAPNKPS
From the text: as §1, §2

[6] = HEK293T cells transfected with NanoLuc-CITK, Tracer K10 1 μM, 2 hours
[7] = mean of at least two independent assays, read-out: Radiometric CitK IC50

Structure (SMILES) | IC50 [3] | IC50 [4] | IC50 [5] | IC50 [1, 7] | further results
Cc1cc2c(-c3ccc(NC(=O)[C@H](N)CC(C)(C)C)cc3C)cncc2[nH]1 [6-Azaindole Control, reference compound] | – | – | – | – | IC50 ([1]; biochemical assay described in Example 3, read-out: IC50): > 3 µM; NanoBRET IC50 (nM) [2, 6]: No binding; KD (nM)* ([2]; in-cell KD from IC50 by Cheng-Prussoff, [Tracer K10] = 1 μM, KD Tracer K10 = 0.23 μM): No binding
CN[C@H](CC(C)C)C(=O)Nc1ccc(-c2ccnc3[nH]ccc23)cc1 [Compound F-41, (2R)-4-Methyl-2-(methylamino)-N-[4-(1H-pyrrolo[2,3-b]pyridin-4-yl)phenyl]pentanamide] | 0.345 µM | 0.006 µM | 0.011 µM | – | –
Cc1cc2c(-c3ccc(NC(=O)[C@H](N)CC(C)C)cc3)ccnc2[nH]1 [Compound F-48, (2R)-2-Amino-4-methyl-N-[4-[2-methyl-1H-pyrrolo[2,3-b]pyridin-4-yl]phenyl]pentanamide] | 0.122 µM | > 3 µM | > 3 µM | – | –
Cc1cc(NC(=O)[C@H](N)CC(C)C)ccc1-c1ccnc2[nH]ccc12 [Compound F-58, (2R)-2-Amino-4-methyl-N-[3-methyl-4-(1H-pyrrolo[2,3-b]pyridin-4-yl)phenyl]pentanamide] | > 3 µM | 0.082 µM | 0.104 µM | – | –
Cc1cc(NC(=O)[C@H](N)C(C)(C)C)ccc1-c1ccnc2[nH]ccc12 [Compound F-59, (2R)-2-Amino-3,3-dimethyl-N-[3-methyl-4-(1H-pyrrolo[2,3-b]pyridin-4-yl)phenyl]butanamide] | > 3 µM | 0.319 µM | 0.546 µM | 0.0491 µM | –
CC(C)C[C@@H](N)C(=O)Nc1ccc(-c2ccnc3[nH]ccc23)cc1F [Compound F-70, (2R)-2-Amino-N-[2-fluoro-4-(1H-pyrrolo[2,3-b]pyridin-4-yl)phenyl]-4-methyl-Pentanamide] | 2.3 µM | 0.043 µM | 0.049 µM | 0.0369 µM | –
Cc1cc2c(-c3ccc(NC(=O)[C@@H](N)[C@H](O)C(C)C)cc3C)ccnc2[nH]1 [Compound F-161, (2S,3R)-2-Amino-3-hydroxy-4-methyl-N-[3-methyl-4-(2-methyl-1H-pyrrolo[2,3-b]pyridin-4-yl)phenyl]pentanamide] | – | – | – | 0.019 µM | Kd [2]: 4.3 nM; IC50 [2, 6]: 0.023 µM
Cc1cc2c(-c3ccc(NC(=O)[C@H](N)[C@@H](O)C(C)C)cc3C)ccnc2[nH]1 [Compound F-162, (2R,3S)-2-Amino-3-hydroxy-4-methyl-N-[3-methyl-4-(2-methyl-1H-pyrrolo[2,3-b]pyridin-4-yl)phenyl]pentanamide] | – | – | – | 0.005 µM | Kd [2]: 1.9 nM; IC50 [2, 6]: 0.01 µM
COc1cc(-c2ccnc3[nH]c(C)cc23)ncc1NC(=O)[C@H](N)CC(C)(C)C [Compound F-171, (2R)-2-Amino-N-[4-methoxy-6-(2-methyl-1H-pyrrolo[2,3-b]pyridin-4-yl)-3-pyridyl]-4,4-dimethyl-pentanamide] | – | – | – | 0.232 µM | –

Further lines, with some results ahead:

IC50 [3] | IC50 [4] | IC50 [5] | IC50 [1, 7] | Structure (SMILES) | further results
0.234 µM | 0.001 µM | 0.064 µM | – | CC(C)(C)[C@@H](N)C(=O)Nc1ccc(-c2ccnc3[nH]ccc23)cc1 [Compound F-13, (2R)-2-Amino-3,3-dimethyl-N-[4-(1H-pyrrolo[2,3-b]pyridin-4-yl)phenyl]butanamide] | –
0.829 µM | 0.026 µM | 0.012 µM | – | COc1cc(-c2ccnc3[nH]ccc23)ccc1NC(=O)[C@H](N)CC(C)C [Compound F-77, (2R)-2-Amino-N-[2-methoxy-4-(1H-pyrrolo[2,3-b]pyridin-4-yl)phenyl]-4-methyl-pentanamide] | –
– | – | – | 3 µM | COc1cc(NC(=O)[C@H](N)CC(C)(C)C)cnc1-c1ccnc2[nH]c(C)cc12 [Compound F-172, (2R)-2-Amino-N-[5-methoxy-6-(2-methyl-1H-pyrrolo[2,3-b]pyridin-4-yl)-3-pyridyl]-4,4-dimethyl-pentanamide] | –
– | – | – | 0.461 µM | Cc1cc2c(-c3ccc(NC(=O)[C@H](N)C(C)(C)F)cc3C)ccnc2[nH]1 [Compound F-173, (2S)-2-Amino-3-fluoro-3-methyl-N-[3-methyl-4-(2-methyl-1H-pyrrolo[2,3-b]pyridin-4-yl)phenyl]butanamide] | –
